Earlier results as cited in patent US7879746B2, “Hydrophilic polypropylene fibers having antimicrobial activity” (3M Innovative Properties Company, priority 1999, dated 2011).

Settings: 100% active, glossary value

Row | Substance | HLB
1 | sorbitan monopalmitate [SPAN™ 40] | 6.7
2 | sorbitan monostearate [ARLACEL™ 60] | 4.3
3 | sorbitan sequioleate (1½ mole adduct) [ARLACEL™ 83] | 3.7
